In patent US11918693B2, “Ibuprofen and acetaminophen tablet” (GlaxoSmithKline Consumer Healthcare Holdings (US) LLC, priority 2019, dated 2024):

Test system: patients with moderate-severe pain after ≥3 third molar extractions
Assay: Study 2: phase 3 single-dose dental pain study, FDC vs IBU 250 mg, APAP 650 mg and placebo
Type: in vivo, human
Conditions: for Dizziness, treatment-emergent adverse event, n (%) / Flushing, treatment-emergent adverse event, n (%) / Headache, treatment-emergent adverse event, n (%) / Nausea, treatment-emergent adverse event, n (%) / Vomiting, treatment-emergent adverse event, n (%): Single-Dose Study 2; for SPID[11]0-8, Tx Diff vs. placebo: first treatment − second treatment, IBU 250 mg, APAP 650 mg; for Number (%) of patients with treatment failure: 12-hour study
Method: Two Studies were performed, both single-center, phase 3, randomized, double-blind, parallel-group, placebo-controlled studies conducted in the United States. Study 2 was a single-dose study whereas Study 3 was a multiple-dose study. The studies were performed in compliance with the ethical principles originating in or derived from the Declaration of Helsinki and in compliance with all International Council for Harmonization Good Clinical Practice Guidelines, as well as all local regulatory requirements.
In Study 2, patients experiencing moderate-severe pain after ≥3 third molar extractions, with at least 2 with partial or complete mandibular impaction, were randomized 3:3:3:1 to receive single-dose FDC IBU/APAP 250 mg/500 mg (administered as 2 tablets of IBU 125 mg/APAP 250 mg), IBU 250 mg alone, APAP 650 mg alone, or placebo under double-blind conditions. Patients self-assessed pain severity and pain relief on site for 12 hours following administration of study medication.
Rescue medication consisted of tramadol hydrochloride 50-100 mg or codeine sulfate 15-60 mg, both immediate release, and patients could administer additional doses every 4-6 hours as needed up to the maximum labeled daily dose. Patients who took rescue medication remained at the study site for the full duration of each study (12 or 48 hours, respectively) and continued to perform assessments.
In both studies 2 and 3, patients were healthy adult males or females aged 18-40 years inclusive, who had undergone surgical extraction of ≥3 third molar teeth (≥2 must have been partial or complete bony mandibular impactions). Other key entry criteria included moderate-severe pain confirmed by a rating of ≥50 mm on a 100-mm visual analog pain severity rating (PSR) scale within approximately 5 hours after completion of surgery and use of only the following preoperative medications/anesthetics: topical benzocaine, a short-acting parenteral local anesthetic (mepivacaine or lidocaine) with or -without a vasoconstrictor and/or nitrous oxide, and no contraindications to the study or rescue medications.
In Study 2, enrolled patients received one of 4 treatments: 1) placebo (administered as 2 tablets); 2) FDC IBU/APAP 250 mg/500 mg (administered as 2 caplets of IBU 125 mg/APAP 250 mg); 3) IBU 250 mg (administered as 2 caplets of IBU 125 mg); or APAP 650 mg (administered as 2 tablets of APAP 325 mg).
At baseline, patients provided self-ratings of pain severity using categorical and numerical PSR scales. The categorical PSR used a 4-point scale (none, mild, moderate, severe), with each category assigned a number from 0 (none) to 3 (severe). Patients reporting at least moderate pain on the categorical PSR at baseline completed a 100-mm visual analog scale. A score of at least 50 mm confirmed eligibility for the study. Additionally, an 11-point (0-10; 0=none to 10=worst possible pain) numerical PSR scale was also used to assess pain.
Once study treatment was administered, the categorical PSR, numerical PSR, and a 5-point categorical pain relief rating scale (0=none, 1=a little, 2=some, 3=a lot, 4=complete) were obtained at predefined assessment times to assess pain and pain relief. In Study 2 (single-dose trial), these assessments were performed at 0.25, 0.5, 1, 1.5, 2, 3, 4, 5, 6, 7, 8, 9, 10, 11, and 12 hours post-treatment. In Study 3 (multiple-dose trial), these assessments were performed at the same time points as in Study 2 up to 12 hours and also at 16, 24, 32, 40, and 48 hours post-treatment Additional evaluations included patient assessments of time to first perceptible pain relief (TFPR), defined as the time that a patient first began to feel any pain-relieving effect whatsoever of the drug and time to meaningful pain relief (TMPR), defined as the time that a patient experienced pain relief that was meaningful to that individual, using the double-stopwatch method, see Mehlisch D R et al., 2010, ibid. […]

[1] = IBU dose 250 mg, APAP dose 650 mg
[2] = Study 2, single oral dose, IBU dose 250 mg, APAP dose 650 mg

Structure (SMILES) | Dizziness, treatment-emergent adverse event, n (%) [1] | Flushing, treatment-emergent adverse event, n (%) [1] | Headache, treatment-emergent adverse event, n (%) [1] | Nausea, treatment-emergent adverse event, n (%) [1] | Vomiting, treatment-emergent adverse event, n (%) [1] | SPID[11]0-8, Tx Diff vs. placebo (Study 2, LSM difference) | SPID[11]0-8, Tx Diff vs. APAP (Study 2, LSM difference, comparator APAP 650 mg, IBU dose 250 mg) | Cumulative proportion of treatment failures after 8 hours [2] [%] | Median duration of pain relief (median time to treatment failure) [2] [h] | Median duration of pain relief (time to treatment failure) [2] [min] | Median time to onset of first perceptible pain relief (TFPR) [2] [min] | Median time to onset of meaningful pain relief (TMPR) [2] [min] | Number (%) of patients with meaningful relief [2] | Number (%) with event, first perceptible pain relief table [2] | SPID[11]0-8, Mean (SD) [2] | SPID[11]0-8, Median [2] | Number (%) of patients with treatment failure [2]
CC(C)Cc1ccc(C(C)C(=O)O)cc1 (centres unmarked) [IBU, 2-(4-isobutylphenyl) propionic acid] | 6 (3.4) n (%) | 2 (1.1) n (%) | 3 (1.7) n (%) | 24 (13.7) n (%) | 15 (8.6) n (%) | 24.42 | 9.10 | 33.1 | 10.1 | 608.5 | 24.6 | 65.9 | 139 (79.4) n (%) | 139 (79.4) n (%) | 28.9 (20.5) | 30.5 | 105 (60.0) n (%)
CC(=O)Nc1ccc(O)cc1 [APAP, N-(4-hydroxyphenyl)acetamide] | 12 (7.3) n (%) | 1 (0.6) n (%) | 4 (2.4) n (%) | 33 (20.0) n (%) | 20 (12.1) n (%) | 15.32 |  | 51.5 |  | 449.0 | 24.2 | 56.6 | 118 (71.5) n (%) | 118 (71.5) n (%) | 19.4 (20.0) | 16.8 | 105 (63.6) n (%)
